Results from PubChem BioAssay (NCI).
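Five compound concentrations were applied to cells in 96-well plates for 48 hours; endpoints were derived by simple linear interpolation of the resulting dose-response curve. TGI marks complete inhibition of growth.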

Legend:
Assay in all cases: growth of human tumour cells (NCI), 48 h
SK-MEL-28 melanoma = test system: SK-MEL-28 melanoma
NCI-H460 lung = test system: NCI-H460 lung
RXF 393 renal = test system: RXF 393 renal
ACHN renal = test system: ACHN renal
MOLT-4 leukemia = test system: MOLT-4 leukemia
SNB-19 CNS = test system: SNB-19 CNS
SNB-75 CNS = test system: SNB-75 CNS
OVCAR-4 ovarian = test system: OVCAR-4 ovarian
A498 renal = test system: A498 renal
HL-60(TB) leukemia = test system: HL-60(TB) leukemia
SF-539 CNS = test system: SF-539 CNS
SF-295 CNS = test system: SF-295 CNS
SF-268 CNS = test system: SF-268 CNS
EKVX NSCLC = test system: EKVX NSCLC
MDA-MB-435 = test system: MDA-MB-435
CCRF-CEM leukemia = test system: CCRF-CEM leukemia
U251 CNS = test system: U251 CNS
A549 NSCLC = test system: A549 NSCLC
KM12 colon = test system: KM12 colon
SK-OV-3 ovarian = test system: SK-OV-3 ovarian
M14 melanoma = test system: M14 melanoma
SR leukemia = test system: SR leukemia
HS 578T breast = test system: HS 578T breast
UO-31 renal = test system: UO-31 renal
IGROV1 ovarian = test system: IGROV1 ovarian
SK-MEL-2 melanoma = test system: SK-MEL-2 melanoma
BT-549 breast = test system: BT-549 breast
K-562 leukemia = test system: K-562 leukemia
NCI-H23 lung = test system: NCI-H23 lung
MCF7 breast = test system: MCF7 breast
HCT-15 colon = test system: HCT-15 colon
T-47D breast = test system: T-47D breast
UACC-62 melanoma = test system: UACC-62 melanoma
MDA-MB-231 breast = test system: MDA-MB-231 breast
OVCAR-8 ovarian = test system: OVCAR-8 ovarian
HT29 colon = test system: HT29 colon
SW-620 colon = test system: SW-620 colon
MALME-3M melanoma = test system: MALME-3M melanoma
NCI-H522 lung = test system: NCI-H522 lung
MDA-N = test system: MDA-N
HCT-116 colon = test system: HCT-116 colon
DU-145 prostate = test system: DU-145 prostate
HOP-92 NSCLC = test system: HOP-92 NSCLC
786-0 renal = test system: 786-0 renal
RPMI-8226 leukemia = test system: RPMI-8226 leukemia
CAKI-1 renal = test system: CAKI-1 renal
NCI/ADR-RES ovarian = test system: NCI/ADR-RES ovarian
COLO 205 colon = test system: COLO 205 colon
SK-MEL-5 melanoma = test system: SK-MEL-5 melanoma
PC-3 prostate = test system: PC-3 prostate
LOX IMVI melanoma = test system: LOX IMVI melanoma
UACC-257 melanoma = test system: UACC-257 melanoma
HOP-62 NSCLC = test system: HOP-62 NSCLC
SN12C renal = test system: SN12C renal
TK-10 renal = test system: TK-10 renal
NCI-H226 lung = test system: NCI-H226 lung
HCC-2998 colon = test system: HCC-2998 colon
OVCAR-5 ovarian = test system: OVCAR-5 ovarian
OVCAR-3 ovarian = test system: OVCAR-3 ovarian

CC(C)=CCC1=C(OCC(=O)O)C(=O)c2ccccc2C1=O
TGI (SK-MEL-28 melanoma): > 100 µM | TGI (NCI-H460 lung): > 100 µM | TGI (RXF 393 renal): 81.1 µM | TGI (ACHN renal): > 100 µM | TGI (MOLT-4 leukemia): > 100 µM | TGI (SNB-19 CNS): 92.7 µM | TGI (SNB-75 CNS): 64.7 µM | TGI (OVCAR-4 ovarian): 99.1 µM | TGI (A498 renal): > 100 µM | TGI (HL-60(TB) leukemia): 36.1 µM | TGI (SF-539 CNS): 56.6 µM | TGI (SF-295 CNS): 41.4 µM | TGI (SF-268 CNS): 65 µM | TGI (EKVX NSCLC): > 100 µM | TGI (MDA-MB-435): 29 µM | TGI (CCRF-CEM leukemia): 54.7 µM | TGI (U251 CNS): > 100 µM | TGI (A549 NSCLC): > 100 µM | TGI (KM12 colon): > 100 µM | TGI (SK-OV-3 ovarian): > 100 µM | TGI (M14 melanoma): > 100 µM | TGI (SR leukemia): > 100 µM | TGI (HS 578T breast): 62.6 µM | TGI (UO-31 renal): > 100 µM | TGI (IGROV1 ovarian): > 100 µM | TGI (SK-MEL-2 melanoma): 84.2 µM | TGI (BT-549 breast): > 100 µM | TGI (K-562 leukemia): > 100 µM | TGI (NCI-H23 lung): > 100 µM | TGI (MCF7 breast): 96.3 µM | TGI (HCT-15 colon): > 100 µM | TGI (T-47D breast): > 100 µM | TGI (UACC-62 melanoma): 37.7 µM | TGI (MDA-MB-231 breast): > 100 µM | TGI (OVCAR-8 ovarian): > 100 µM | TGI (HT29 colon): > 100 µM | TGI (SW-620 colon): 76.6 µM | TGI (MALME-3M melanoma): 35 µM | TGI (NCI-H522 lung): 57.4 µM | TGI (MDA-N): 34.8 µM | TGI (HCT-116 colon): 66.8 µM | TGI (DU-145 prostate): > 100 µM | TGI (HOP-92 NSCLC): > 100 µM | TGI (786-0 renal): > 100 µM | TGI (RPMI-8226 leukemia): > 100 µM | TGI (CAKI-1 renal): > 100 µM | TGI (NCI/ADR-RES ovarian): > 100 µM | TGI (COLO 205 colon): > 100 µM | TGI (SK-MEL-5 melanoma): 41.4 µM | TGI (PC-3 prostate): > 100 µM | TGI (LOX IMVI melanoma): > 100 µM | TGI (UACC-257 melanoma): 76 µM | TGI (HOP-62 NSCLC): > 100 µM | TGI (SN12C renal): 74.8 µM | TGI (TK-10 renal): > 100 µM | TGI (NCI-H226 lung): 90.1 µM

Cc1ccc(C2SCC(=O)N2c2ccc(-c3ccc(-n4c(-c5ccccc5)nc5ccccc5c4=O)cc3)cc2)cc1 (stereo not given)
TGI (SK-MEL-28 melanoma): > 100 µM | TGI (HCC-2998 colon): > 100 µM | TGI (OVCAR-5 ovarian): > 100 µM | TGI (NCI-H460 lung): > 100 µM | TGI (ACHN renal): > 100 µM | TGI (MOLT-4 leukemia): > 100 µM | TGI (SNB-19 CNS): > 100 µM | TGI (OVCAR-4 ovarian): > 100 µM | TGI (A498 renal): > 100 µM | TGI (HL-60(TB) leukemia): > 100 µM | TGI (SF-295 CNS): > 100 µM | TGI (SF-268 CNS): > 100 µM | TGI (EKVX NSCLC): > 100 µM | TGI (MDA-MB-435): > 100 µM | TGI (CCRF-CEM leukemia): > 100 µM | TGI (U251 CNS): > 100 µM | TGI (A549 NSCLC): > 100 µM | TGI (KM12 colon): > 100 µM | TGI (SK-OV-3 ovarian): > 100 µM | TGI (M14 melanoma): > 100 µM | TGI (SR leukemia): > 100 µM | TGI (HS 578T breast): > 100 µM | TGI (UO-31 renal): > 100 µM | TGI (IGROV1 ovarian): > 100 µM | TGI (SK-MEL-2 melanoma): > 100 µM | TGI (BT-549 breast): > 100 µM | TGI (K-562 leukemia): > 100 µM | TGI (NCI-H23 lung): > 100 µM | TGI (MCF7 breast): > 100 µM | TGI (HCT-15 colon): > 100 µM | TGI (T-47D breast): > 100 µM | TGI (UACC-62 melanoma): > 100 µM | TGI (MDA-MB-231 breast): > 100 µM | TGI (OVCAR-8 ovarian): > 100 µM | TGI (HT29 colon): > 100 µM | TGI (SW-620 colon): > 100 µM | TGI (MALME-3M melanoma): > 100 µM | TGI (NCI-H522 lung): > 100 µM | TGI (MDA-N): > 100 µM | TGI (DU-145 prostate): > 100 µM | TGI (OVCAR-3 ovarian): > 100 µM | TGI (HOP-92 NSCLC): > 100 µM | TGI (786-0 renal): > 100 µM | TGI (RPMI-8226 leukemia): > 100 µM | TGI (CAKI-1 renal): > 100 µM | TGI (NCI/ADR-RES ovarian): > 100 µM | TGI (COLO 205 colon): > 100 µM | TGI (SK-MEL-5 melanoma): > 100 µM | TGI (PC-3 prostate): > 100 µM | TGI (LOX IMVI melanoma): > 100 µM | TGI (UACC-257 melanoma): > 100 µM | TGI (HOP-62 NSCLC): > 100 µM | TGI (SN12C renal): > 100 µM | TGI (TK-10 renal): > 100 µM
